Reference: patent publication US10293020B2, “Peptide therapeutics and methods for using same” (Stealth BioTherapeutics Corp, priority 2013, dated 2019)
Non-standard residues stand in square brackets, D forms with d. No end group written: not given here. Cha = N[C@@H](CC1CCCCC1)C(=O)O

Experiments:
[1] = Variable temperature static 31P NMR of membrane integrity; type: physicochemical; conditions: P:L=1:12.5, 280 K-360 K
From the text: (§1) Large unilamellar vesicles (LUVs) with a transmembrane gradient of about −180 mV are constructed, composed of a mixture of cardiolipin (CL, 10% mol), phosphatidylcholine (PC, 50% mol), and phosphatidylethanolamine (PE, 40% mol). An electrochemical gradient is incorporated because the transloation of MPPs is known to be highly dependent on electrochemical potential. Spectra from three different peptide-lipid systems are compared: Mn^2+ free, Mn^2+ bound to one side of the vesicle, and Mn^2+ bound to both the inside and outside of the vesicle.
(§2) The spinning rate for all MAS experiments is 5 kHz, performed at 310 K. ^13C direct polarization (DP) MAS NMR spectra is decoupled with two pulse phase modulation (TPPM) at ^1H field strengths of 30 kHz. Typical radiofrequency (rf) pulse lengths are ˜5 μs for ^13C and ˜2 μs for ^1H. Static ^31P spectra are decoupled with WALTZ-16 at ^1H field strengths of 6 kHz. Typical rf pulse lengths are ˜4 μs for ^31P.
Static ^31P chemical shift anisotropy NMR measurements are conducted at variable temperatures (280 K-360 K) to determine if any changes in membrane morphology or lipid transition temperatures occurr upon peptide binding. The ^31P NMR spectra of the model mitochondria membranes alone are recorded to provide a comparison to the peptide-bound membranes. […]

[2] = 13C MAS PRE solid-state NMR of peptide in Mn2+-bound vesicles; type: physicochemical
From the text: as §1
A pH difference is used to establish a transmembrane gradient. The membrane encapsulates 300 mM pH 4 phosphate buffer inside the vesicle and 10 mM pH 7 phosphate buffer outside to establish an electrochemical potential of −177 mV, which is reflective of the biologically encountered mitochondrial gradient of −180 mV. The existence of a three unit pH gradient is confirmed by the fluorescence response of 9-aminoacridine as previously described.
Hydrated CL/PC/PE membranes are formed by dissolving the lipids in a 95:5 benzene:ethanol mixture at an appropriate molar ratio of 0.1/0.5/0.4, respectively. The lipid mixture is lyophilized overnight. The dried lipid cake is rehydrated with 300 mM phosphate buffer at pH 4 which is heated to 85° C. The rehydrated lipid sample is incubated for 2 hours at 85° C. and vortexed periodically to produce multilamellar vesicles (MLVs). The resulting MLVs are down-sized using a mini extruder (Avanti Polar Lipids, Inc.) and passed through a 100 nm polycarbonate membrane 21 times to produce LUVs of uniform diameter of 100 nm. The size of the vesicles is confirmed by dynamic light scattering on a ZetaPALS particle size analyzer. The LUVs are dialyzed for at least 8 hours using a Slide-A-Lyzer (Thermo Fisher Scientific) to remove the low pH, high salt buffer and replace it with 10 mM phosphate buffer at pH 7 for the exterior membrane environment.
After dialysis, the MPP is added at the appropriate molar ratio (P:L=1:10 or P:L=1:40) to the LUVs and incubated overnight. The MPP-lipid mixture is centrifuged at 160 000 g for 1.5 hours to yield a hydrated pellet, which is packed into a 200 μL MAS rotor. For the Mn^2+ containing samples, the Mn^2+ solution is prepared from MnCl2.4H2O and added at 8 mol % of the lipids. To obtain one side Mn^2+ bound vesicles, the Mn^2+ solution is either added after ultracentrifugation or during extrusion, producing outside-bound and inside-bound one side Mn^2+ bound samples. For two side Mn^2+ bound vesicles, the vesicles are extruded with the appropriate percentage of Mn^2+ and had Mn^2+ added after dialysis to replace the ions lost during this process.
as §2
To assess the remaining two mechanisms of translocation (electroporation and guanidinium-phosphate complexation), a ^13C MAS NMR PRE method at 310 K is used. In order to assure asymmetric distribution of Mn^2+ paramagnetic ions with the new model inner mitochondrial membranes, the ion position is monitoted with the ^31P NMR signal of the lipid heagroups. Without paramagnetic ions present, the entire signal is measured from all the phospholipid headgroups. The addition of Mn^2+ to the outside of the vesicles is expected to cause signal attenuation of about half the lipids, corresponding to dephasing of the outer leaflet. When the paramagnetic ions are on both sides of the bilayer, the entire ^31P signal is expected to be killed because all lipid headgroups will be in close proximity to Mn^2+. […]

What does the source list for [Cha]R[Cha]K-NH2 [MPP]?
effect on bilayer integrity [1]: does not alter the bilayer integrity; insertion depth in the bilayer ([2]; P:L=1:10): inserted into both leaflets at C2; insertion depth in the bilayer ([2]; P:L=1:40): inserted at approximately C1-C2; leaflet distribution of the peptide ([2]; high peptide concentration, P:L=1:10): distributed in both the inner and outer leaflet; leaflet distribution of the peptide ([2]; low peptide concentration, P:L=1:40): binds only to the outer leaflet; peptide 13C peak signal intensity retained vs unbound sample ([2]; one side Mn2+ bound, P:L=1:10): ~75%; peptide 13C peak signal retention ([2]; two side Mn2+ bound, P:L=1:10): about 50%
